{"source": "patent US20140336267A1", "about": "“UTILIZATION OF THE FUNCTION OF RARE SUGAR AS PROMOTER FOR THE MIGRATION OF GLUCOKINASE FROM NUCLEUS TO CYTOPLASM” (NATIONAL UNIVERSITY CORPORATION KAGAWA UNIVERSITY, priority 2006, published 2014)", "key": {"[1]": {"molecular_target": "T1, glucokinase (Rattus norvegicus, UniProt P17712)", "T1 construct": "stained by a fluorescence antibody method using an anti-glucokinase antibody; endogenous in cells; host or cells: primary culture of hepatocytes from male Wistar rats", "T1 sequence (P17712 1-465 isoform P17712-3)": "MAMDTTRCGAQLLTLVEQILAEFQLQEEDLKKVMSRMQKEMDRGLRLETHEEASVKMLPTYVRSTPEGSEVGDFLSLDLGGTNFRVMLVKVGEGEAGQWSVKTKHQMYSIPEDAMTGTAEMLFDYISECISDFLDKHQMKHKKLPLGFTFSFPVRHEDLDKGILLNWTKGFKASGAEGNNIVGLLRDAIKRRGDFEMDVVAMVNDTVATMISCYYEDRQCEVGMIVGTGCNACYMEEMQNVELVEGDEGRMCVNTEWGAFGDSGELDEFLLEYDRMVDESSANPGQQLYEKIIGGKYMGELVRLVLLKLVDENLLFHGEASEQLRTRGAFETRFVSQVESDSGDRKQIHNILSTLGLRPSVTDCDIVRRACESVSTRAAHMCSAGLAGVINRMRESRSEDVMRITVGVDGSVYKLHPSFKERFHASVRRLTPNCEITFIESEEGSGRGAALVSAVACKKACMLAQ", "assay": "Glucokinase distribution in primary hepatocytes with D-glucose and D-fructose (fluorescence antibody method)", "format": "cell-based", "procedure": "In the presence of 5 mM D-glucose, glucokinase mainly existed in the cell nucleus.\n(§1) Cultured hepatocytes were incubated in an MEM culture medium containing 5 mM or 25 mM D-glucose with an action of promoting glucokinase transfer from nucleus to cytoplasm. Glucokinase transfer from nucleus to cytoplasm, glycogen synthesis and lactic acid generation were increased. Via glucose, glucokinase transfer from nucleus to cytoplasm occurs, which raises cytoplasmic glucokinase activity to possibly promote the sugar metabolism in liver. […] (FIGS. 4, 6, 7 and 8)"}, "[2]": {"tested_on": "hepatocytes", "assay": "Glycogen synthesis in cultured hepatocytes", "format": "cell-based, rat", "details": "MEM culture medium containing 5 mM or 25 mM D-glucose", "procedure": "as §1"}, "[3]": {"molecular_target": "T1, glucokinase", "assay": "Hepatic glucokinase transfer from nucleus to cytoplasm in Goto-Kakizaki rats (type 2 diabetes model)", "format": "in vivo", "procedure": "The action of suppressing blood glucose increase with D-fructose at a low concentration was examined. To Goto-Kakizaki rats as a model animal of type 2 diabetes mellitus, D-glucose to 2 g/[…] or D-glucose to 2 g/l kg body weight+D-fructose to 0.2 g/1 kg body weight was administered orally, to examine the modification of glucokinase transfer from the nucleus to the cytoplasm in hepatocytes and the change of the blood glucose levels in the portal vein and the tail vein.\n2 g/kg D-glucose is orally given to male Goto-Kakizaki rats starved overnight. Simultaneously, 0.2 g/kg D-psicose was orally given. Thirty minutes later and 60 minutes later, the rats were perfused and fixed with 4% para-formaldehyde under anesthesia, from which liver was immediately resected to prepare frozen sections. The distribution of hepatic glucokinase in nucleus and cytoplasm was analyzed with the fluorescence antibody method using an anti-glucokinase antibody. Simultaneously, blood was drawn out from the tail vein and the portal vein, to assay blood glucose level and insulin concentration. Herein, liver is divided in the portal vein region and the central vein region of liver. It has been known that the activity of glucokinase in the central vein region is higher by 1.3 fold to 1.5 fold than the activity thereof in the portal vein region. Therefore, the glucokinase distributions in the nucleus and the cytoplasm in the central vein region and the portal vein region were analyzed."}, "[4]": {"molecular_target": "T1, glucokinase", "assay": "Hepatic glucokinase transfer from nucleus to cytoplasm after oral sugar given with D-glucose, Wistar rats (Example 3)", "format": "in vivo", "details": "Wistar rats starved overnight; 2 g/kg D-glucose oral alone; 30 minutes later", "procedure": "Male Wistar rats starved overnight were given 2 g/kg D-glucose orally. Simultaneously, 0.2 g/kg D-psicose, D-fructose or a mixture of D-psicose and D-fructose at 1:3 were given orally. Thirty minutes later, the rats were perfused and fixed with 4% para-formaldehyde under anesthesia, from which liver was immediately resected to prepare frozen sections. The distribution of glucokinase in the nucleus and the cytoplasm was analyzed with the fluorescence antibody method using an anti-glucokinase antibody. Simultaneously, blood was drawn out from the tail vein and the portal vein, to assay blood glucose levels."}, "[5]": {"tested_on": "hepatocytes", "assay": "Lactic acid generation in hepatocytes", "format": "cell-based, rat", "details": "MEM culture medium containing 5 mM or 25 mM D-glucose", "procedure": "[…] As a control, DMSO was added.\nas §1"}, "[6]": {"details": "2 g/kg D-glucose oral alone, 30 and 60 minutes, vs starved"}}}
{"smiles": "O=C[C@H](O)[C@@H](O)[C@H](O)[C@H](O)CO", "note": "[D-glucose]", "values": [{"measurement": "cytoplasmic glucokinase", "setting": "[1]; 25 mM D-glucose, 37° C. for 30 minutes, vs 5 mM D-glucose", "result": "the cytoplasmic glucokinase was increased"}, {"measurement": "glucokinase transfer from nucleus to cytoplasm", "setting": "[1]; MEM culture medium containing 5 mM or 25 mM D-glucose", "result": "increased"}, {"measurement": "glycogen synthesis", "setting": "[2]", "result": "increased"}, {"measurement": "glucokinase fluorescence in the cytoplasm (liver)", "setting": "[3]; [6]", "result": "fluorescence in the cytoplasm was inversely increased"}, {"measurement": "glucokinase fluorescence in the nucleus (liver)", "setting": "[3]; [6]", "result": "Fluorescence in the nucleus was reduced"}, {"measurement": "glucokinase transfer from the nucleus to the cytoplasm in hepatocytes", "setting": "[3]; oral D-glucose alone", "result": "glucokinase transferred from the nucleus to the cytoplasm"}, {"measurement": "cytoplasmic glucokinase level (fluorescence intensity analysis)", "setting": "[3]; oral D-glucose vs 24-hour fasting, central vein and portal vein regions", "result": "significantly increased"}, {"measurement": "glucokinase transfer from the nucleus to the cytoplasm in hepatocytes", "setting": "[4]", "result": "glucokinase transfer from the nucleus to the cytoplasm occurred slightly"}, {"measurement": "lactic acid generation", "setting": "[5]", "result": "increased"}]}
